{
  "source": "patent US20250241925A1",
  "about": "“METHODS OF P21 SUPPRESSION FOR BONE REGENERATION AND HEALING” (UWM Research Foundation, Inc., priority 2022, published 2025)",
  "key": {"RunX2": {"system": "RunX2", "experiment": "Gene expression analysis (qPCR, ΔΔCt) in HuMSCs: RunX2", "format": "cell-based, human", "settings": "7 days", "protocol": "(§1) Human umbilical cord derived mesenchymal stem cells (HuMSCs) were plated in a 24 well plate at a density of 30,000 cells per well. Samples were divided as controls—no drug, no differentiation media; osteogenic control—no drug, DMEM media supplemented with factors to induce osteogenesis including dexamethasone, L-ascorbic acid, and beta-glycerol phosphate; 2.5, 5, and 10 μM wells consisted of DMEM media supplemented respective concentrations of UC2288. Media was renewed in all wells every other day. After 7 days, all samples were processed to extract total RNA. Next, cDNA was produced and qPCR was performed for gene expression analyses. Three genes of interest were analyzed-RunX2, Sp7 (Osterix), and CDKN1A (p21). RunX2 and Sp7 are genes responsible for osteoblast differentiation and take part in osteogenesis. To analyze the data, the ΔΔCt method was employed against an 18s endogenous control and DMEM media without differentiation factors or drugs as reference controls. The ΔΔCt can be described as:\n(§2) Relative mRNA expression of sample=2^−ΔΔCt of sample,\n(§3) where ΔΔCt of sample=(Ct of sample−Ct of 18s of sample)−(Ct of reference control−Ct of 18s of reference control)."}, "CDKN1A (p21)": {"system": "CDKN1A (p21)", "experiment": "Gene expression analysis (qPCR, ΔΔCt) in HuMSCs: p21", "format": "cell-based, human", "settings": "7 days", "protocol": "as §1, §2, §3"}, "fractured tibiae": {"system": "fractured tibiae", "experiment": "MicroCT imaging of fracture healing in mice after post-fracture UC2288 injection (Example 4)", "format": "in vivo", "settings": "five 0.1 mL 10 μM injections at days 3, 5, 7, 10, 14; 21 days post-injury", "protocol": "Male wildtype mice (n=10) aged between 8-10 weeks were selected for this study. Future experiments will also include aged mice (e.g., ˜18 months of age). […] The mice had their tibiae fractured at the beginning of the study. Five mice were considered controls and received five injections of saline solution at days 3, 5, 7, 10, and 14 post-injury. The other five mice were injected five times with 0.1 mL 10 μM of UC2288 solution at days 3, 5, 7, 10, and 14 post-injury. At 21 days post-injury, mice were sacrificed, and their tibiae were excised. These bones were imaged using a microCT system that can differentiate between bone and soft tissue."}, "MSCs [1]": {"system": "MSCs", "experiment": "Cytotoxicity (MTT assay) of UC2288 in purified MSCs", "format": "cell-based, mouse (C57BL/6)", "protocol": "All procedures with animals were approved by the IACUC at the University of Wisconsin-Milwaukee. The mice used for this study were C57BL/6 (Charles River, MA). Fifteen 8-week-old male mice were euthanized by CO2 inhalation. After checking for a heartbeat, a cervical dislocation was performed followed by checking for any signs of breathing again for precautionary measures. After confirming that there were no signs of breathing, the tibia and the femur were extracted and placed in phosphate buffered saline (PBS) (Corning Inc., NY). A bone marrow flush with a 23-gauge, 0.5-inch needle (Becton Dickinson, NJ) was performed in a biosafety hood and the pelleted bone marrow cell suspension was plated in a 60×15 mm Primaria cell culture dish (Corning Inc., NY) in MesenCult Basal Medium (Mouse) that contained 50 mL MesenCult 10× Supplement (Mouse) and 0.5 mL MesenPure 1000× (STEMCELL Technologies, Vancouver, Canada). The plates were incubated at 37° C. in a 5% CO2 humidified atmosphere. After 24 hours, half the medium volume was removed, and fresh medium was added. The media in the cultures were renewed every other day. As the cells reached confluency, they were detached by treatment with 0.5% Trypsin-EDTA (Thermo Fisher Scientific, MA) and replated into a 100×20 mm Primaria cell culture dish (Corning Inc.) and eventually into a T-25-cm^2 Primaria flask (Corning Inc, NY). […]"}, "[2]": {"system": "transverse tibial fracture", "experiment": "Microtomography imaging of transverse tibial fracture callus (Example 6)", "format": "in vivo, C57BI/6 wildtype mice", "settings": "10 μM, 0.1 mL at days 3, 5, 7, 10, 14; 4 weeks post-fracture", "protocol": "All protocols were approved by IACUC at UWM. C57BI/6 wildtype mice at 8 weeks of age were administered a transverse tibial fracture. The mice were injected with 10 μM of UC2288 solution at a volume of 0.1 mL at days 3, 5, 7, 10, and 14. The mice were sacrificed 4 weeks post-fracture and their tibiae were excised. The bone samples were placed in 10% formalin for two days followed by placement in 70% ethanol until they were ready for microCT imaging. Each sample was placed on a holder and few drops of phosphate buffered saline were placed along with the sample. The sample was scanned using a microCt (Zeiss Xradia Versa X-ray microscope) scanner at a 15 μm thickness per slice. The data was contoured using MIMICS (Materialise NV) followed by data analysis via Python. […] See FIG. 7A-B. The black and white images show where bone was automatically thresholded via ImageJ."}, "Sp7 (Osterix)": {"system": "Sp7 (Osterix)", "experiment": "Gene expression analysis (qPCR, ΔΔCt) in HuMSCs: Sp7", "format": "cell-based, human", "settings": "7 days", "protocol": "as §1, §2, §3"}, "MSCs [3]": {"system": "MSCs", "experiment": "Osteogenic differentiation of MSCs, Alizarin Red S staining of calcium deposits", "format": "cell-based, mouse (C57BL/6)", "protocol": "In order to test whether UC2288 can improve osteogenic capacity of MSCs, the purified MSCs were differentiated into osteoblasts after interaction with UC2288. For osteogenic differentiation experiment, 84,000 cells were added into wells of a 24-well plate (Corning Inc., NY). Each concentration of UC2288, i.e., 2.5 μM, 5 μM, and 10 μM were tested in triplicates along with their controls which had no drugs but simply DMEM media and incubated for a period of 24- and 48-hours. After the designated time periods, the drug solutions were aspirated out of each well. To test for osteogenesis at different concentrations, relevant media were added to cells and renewed every other day for up to 21 days.\nThe osteogenic media consisted of 1 nM of dexamethasone, 50 μg/mL of L-Ascorbic acid, and 10 mM of β-glycerophosphate (Sigma-Aldrich, MO) in 50 mL DMEM.\nAfter 21 days of culture, cells were stained following the appropriate staining protocol. […]\nThis experiment tested the ability of cells that interacted with the UC2288 drug to generate bone-forming osteoblast cells. […] After staining each well by following an osteogenic staining protocol, the area of the stains was analyzed using ImageJ and the data were graphed in GraphPad Prism. […]"}},
  "data": [
    {"compound": "O=C(Nc1ccc(Cl)c(C(F)(F)F)c1)N[C@H]1CC[C@H](Oc2ccc(C(F)(F)F)cn2)CC1", "note": "[UC2288, 1-(4-chloro-3-(trifluoromethyl)phenyl)-3-((1r,4r)-4-((5-(trifluoromethyl)pyridin-2-yl)oxy)cyclohexyl)urea]", "values": [
      {"measurement": "effect on osteogenic markers compared to 2.5 and 10 μM", "setting": "RunX2; 5 μM", "value": "most significant effect"},
      {"measurement": "RunX2 expression compared to controls", "setting": "RunX2; 2.5, 5, 10 μM", "value": "increased osteogenic potential"},
      {"measurement": "RunX2 expression compared to the osteogenic control", "setting": "RunX2; 2.5, 5, 10 μM", "value": "less than the osteogenic control"},
      {"measurement": "expression of p21 in HuMSCs", "setting": "CDKN1A (p21); 2.5 μM", "value": "reduced p21 expression"},
      {"measurement": "expression of p21 in HuMSCs", "setting": "CDKN1A (p21); 5 μM", "value": "reduced p21 expression"},
      {"measurement": "expression of p21 in HuMSCs", "setting": "CDKN1A (p21); 10 μM", "value": "increased expression"},
      {"measurement": "bone formation/healing versus saline control mice (microCT)", "setting": "fractured tibiae", "value": "more bone formation/healing"},
      {"measurement": "proliferation of the MSCs (MTT, absorbance 540 nm) versus positive control DMEM media", "setting": "MSCs [1]; 2.5, 5 and 10 μM UC2288, 24 hours", "value": "No significant difference"},
      {"measurement": "proliferation of the MSCs (MTT, absorbance 540 nm) versus positive control DMEM media", "setting": "MSCs [1]; 2.5, 5 and 10 μM UC2288, 48 hours", "value": "No significant difference"},
      {"measurement": "callus Surface Area (microCT)", "setting": "[2]", "value": 0.1147, "unit": "mm^2"},
      {"measurement": "callus Surface Area Pixels (microCT)", "setting": "[2]", "value": 7611878.877, "unit": "Pixels"},
      {"measurement": "callus Volume (microCT)", "setting": "[2]", "value": 0.4206, "unit": "mm^3"},
      {"measurement": "callus Volume Pixels (microCT)", "setting": "[2]", "value": 27919486, "unit": "Pixels"},
      {"measurement": "Sp7 expression compared to the osteogenic positive control", "setting": "Sp7 (Osterix); 5 μM", "value": "increased osteogenic potential"},
      {"measurement": "Sp7 expression compared to the osteogenic positive control", "setting": "Sp7 (Osterix); 10 μM", "value": "increased osteogenic potential"},
      {"measurement": "Sp7 expression compared to the control", "setting": "Sp7 (Osterix); all concentrations (2.5, 5, 10 μM)", "value": "increased osteogenic gene expression"},
      {"measurement": "area of osteogenic stained cells, comparison of 2.5, 5 and 10 μM", "setting": "MSCs [3]; 5 μM UC2288 at 24 hr", "value": "most osteogenic stained cells"},
      {"measurement": "staining for calcium deposits in osteoblasts from MSCs versus DMEM control", "setting": "MSCs [3]; 10 μM UC2288 for 24 hr, 21 days osteogenic culture", "value": "Greater staining"}
    ]}
  ]
}
